Results taken from ChEMBL document CHEMBL6087482, “Discovery of INCB159020, an Orally Bioavailable KRAS G12D Inhibitor” (J Med Chem, 2025).

Tests used:
[1] = Inhibition of ERK phosphorylation in KRAS G12D mutant dependent human HPAF-II cells incubated for 2 hrs by HTRF assay; format: cell-based
[2] = Apparent permeability across apical to basolateral side in human Caco-2 cells at 50 uM incubated for 120 mins by LC-MS analysis; format: ADME, cell-based
[3] = Intrinsic clearance in human liver microsomes at 1 uM measured upto 30 mins in presence of NADPH by LC/MS analysis; format: ADME, Microsome; conditions: read-out: CLH (converted)
[4] = Inhibition of ERK phosphorylation in KRAS G12D mutant dependent human HPAF-II cells incubated for 2 hrs with human whole blood containing compound by HTRF assay; format: cell-based
[5] = target: GTPase KRas (Homo sapiens, UniProt P01116, G12D); test: Inhibition of bodipy-loaded KRAS G12D mutant (unknown origin) assessed as GDP-GTP exchange preincubated for 4 hrs followed by GppNHp and SOS1 addition and measured after 2 hrs by fluorescence based plate reader analysis
[6] = target: GTPase KRas (Homo sapiens, UniProt P01116); test: Binding affinity to KRAS (unknown origin) assessed as dissociation constant by SPR analysis
[7] = Efflux ratio of apparent permeability in human Caco-2 cells at 50 uM incubated for 120 mins by LC-MS analysis; format: ADME, cell-based
[8] = Oral bioavailability in Non human primate at 2.0 mg/kg; format: ADME, organism-based; conditions: primates, in vivo
[9] = test system: Primates; test: AUC in Non human primate at 2.0 mg/kg, po or 0.5 mg/kg, iv; format: ADME, organism-based; conditions: in vivo
[10] = Clearance in Sprague-Dawley rat assessed as hepatic blood flow at 3 mg/kg, po or 1 mg/kg, iv measured after 24 hrs by LC-MS/MS analysis; format: ADME, organism-based; conditions: in vivo
[11] = Cmax in Sprague-Dawley rat at 3 mg/kg, po or 1 mg/kg, iv measured after 24 hrs by LC-MS/MS analysis; format: ADME, organism-based; conditions: in vivo
[12] = test system: Primates; test: Clearance in Non human primate at 2.0 mg/kg, po or 0.5 mg/kg, iv; format: ADME, organism-based; conditions: in vivo
[13] = Cmax in Non human primate at 2.0 mg/kg, po or 0.5 mg/kg, iv; format: ADME, organism-based; conditions: primates, in vivo
[14] = Half-life in Non human primate at 2.0 mg/kg, po or 0.5 mg/kg, iv; format: ADME, organism-based; conditions: primates, in vivo
[15] = AUC in Sprague-Dawley rat at 3 mg/kg, po or 1 mg/kg, iv measured after 24 hrs by LC-MS/MS analysis; format: ADME, organism-based; conditions: in vivo
[16] = Half-life in Sprague-Dawley rat at 3 mg/kg, po or 1 mg/kg, iv measured after 24 hrs by LC-MS/MS analysis; format: ADME, organism-based; conditions: in vivo
[17] = test system: Primates; test: Clearance in Non human primate assessed as hepatic blood flow at 2.0 mg/kg, po or 0.5 mg/kg, iv; format: ADME, organism-based; conditions: in vivo
[18] = Oral bioavailability in Sprague-Dawley rat at 3 mg/kg measured after 24 hrs by LC-MS/MS analysis; format: ADME, organism-based; conditions: in vivo
[19] = Cmax in Sprague-Dawley rat at 3 mg/kg, po or 0.1 mg/kg, iv measured after 24 hrs by LC-MS/MS analysis; format: ADME, organism-based; conditions: in vivo
[20] = test system: Primates; test: Clearance in Non human primate assessed as hepatic blood flow at 2.0 mg/kg, po or 1 mg/kg, iv; format: ADME, organism-based; conditions: in vivo
[21] = AUC in Non human primate at 2.0 mg/kg, po or 1 mg/kg, iv; format: ADME, organism-based; conditions: primates, in vivo
[22] = Cmax in Non human primate at 2.0 mg/kg, po or 1 mg/kg, iv; format: ADME, organism-based; conditions: primates, in vivo
[23] = Half-life in Sprague-Dawley rat at 3 mg/kg, po or 0.1 mg/kg, iv measured after 24 hrs by LC-MS/MS analysis; format: ADME, organism-based; conditions: in vivo
[24] = AUC in Sprague-Dawley rat at 3 mg/kg, po or 0.1 mg/kg, iv measured after 24 hrs by LC-MS/MS analysis; format: ADME, organism-based; conditions: in vivo
[25] = Half-life in Non human primate at 2.0 mg/kg, po or 1 mg/kg, iv; format: ADME, organism-based; conditions: primates, in vivo
[26] = Clearance in Sprague-Dawley rat assessed as hepatic blood flow at 3 mg/kg, po or 0.1 mg/kg, iv measured after 24 hrs by LC-MS/MS analysis; format: ADME, organism-based; conditions: in vivo
[27] = In vivo inhibition of ERK phosphorylation in tumor of mouse xenografted with HPAC cells at 6 mg/kg, po measured after 4 hrs relative to control; format: functional

Chain of GTPase KRas (Homo sapiens, UniProt P01116) (P01116 whole entry): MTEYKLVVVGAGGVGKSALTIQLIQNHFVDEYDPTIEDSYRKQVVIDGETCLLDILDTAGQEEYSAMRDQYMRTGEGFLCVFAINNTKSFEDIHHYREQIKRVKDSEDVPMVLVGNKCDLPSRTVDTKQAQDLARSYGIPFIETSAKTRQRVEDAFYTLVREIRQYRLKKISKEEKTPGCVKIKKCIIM

IC50 [1] [nM]	Papp A→B at 2 h, 50 µM [2] [×10⁻⁶ cm/s]	hepatic clearance at 1 µM [3] [mL/min/kg]	IC50 [4] [nM]	IC50 [5] [nM]	Kd [6] [nM]	Structure (SMILES)	other results
39	0.7	> 18.3	1030	6.1		Cc1nc2c(F)c(-c3cccc4ccc(F)cc34)c(CCC#N)cc2c2c1cc(CN1CCCCC1=O)n2[C@H]1[C@H]2CN[C@@H]1C2	
10	1.7	> 18.3	519	3.7	0.84	N#CCCc1cc2c(nc(-n3cncn3)c3cc(CN4CCOCC4=O)n([C@H]4[C@H]5CN[C@@H]4C5)c32)c(F)c1-c1cccc2ccc(F)cc12	
20	< 0.1	> 18.3	410	2.1	< 0.001	CN(C)C(=O)CCc1cc2c(OC[C@@]34CCCN3C[C@H](F)C4)nc3c(F)c(-c4cc(O)cc5ccccc45)c(CCC#N)cc3c2n1[C@H]1[C@H]2CN[C@@H]1C2	
				8000		CN(C)C1CN(c2nc(N3CCNCC3)c3cc(Cl)c(-c4cc(O)cc5ccccc45)c(F)c3n2)C1	
28	0.2	> 18.3	492	3.8	0.26	CCOc1nc2c(F)c(-c3cc(O)cc4ccccc34)c(CCC#N)cc2c2c1cc(CCC(=O)N(C)C)n2[C@H]1[C@H]2CN[C@@H]1C2	
62			1100		0.24	N#CCCc1cc2c(nc(OC[C@@]34CCCN3C[C@H](F)C4)c3cc(CCC(=O)N4CCC4)n([C@@H]4[C@H]5CN[C@@H]4C5)c32)c(F)c1-c1cccc2ccc(F)cc12	
1300				12	3	Cc1cc2c(nc(N3CC(N(C)C)C3)c3nc(CCC(=O)N(C)C)n([C@H]4[C@H]5CN[C@@H]4C5)c32)c(F)c1-c1cc(O)cc2ccccc12	
17	1.1	11.7	626	3.8		N#CCCc1cc2c(nc(-c3ccncn3)c3cc(CN4CCOCC4=O)n([C@H]4[C@H]5CN[C@@H]4C5)c32)c(F)c1-c1cccc2ccc(F)cc12	efflux ratio at 2 h, 50 µM [7]: 20
45			597	3.5		Cc1nc2c(F)c(-c3cc(O)cc4ccccc34)c(CCC#N)cc2c2c1cc(CN1CCCCC1=O)n2[C@H]1[C@H]2CN[C@@H]1C2	
104			1130	3	0.04	CN(C)C(=O)CCc1cc2c(N3CC(C)(N(C)C)C3)nc3c(F)c(-c4cc(O)cc5ccccc45)c(CCC#N)cc3c2n1[C@H]1[C@H]2CN[C@@H]1C2	
127			977	2.9	0.02	CN(C)C(=O)CCc1nc2c(N3CC(N(C)C)C3)nc3c(F)c(-c4cc(O)cc5ccccc45)c(CCC#N)cc3c2n1[C@H]1[C@H]2CN[C@@H]1C2	
7.2	0.7	> 18.3	677	2.7		Cc1nc2c(F)c(-c3cccc4ccc(F)cc34)c(CCC#N)cc2c2c1cc(CN1CCOCC1=O)n2[C@H]1[C@H]2CN[C@@H]1C2	
92			1240	2.9	0.031	CN(C)C(=O)CCc1nc2c(N3CC(C)(N(C)C)C3)nc3c(F)c(-c4cc(O)cc5ccccc45)c(CCC#N)cc3c2n1[C@H]1[C@H]2CN[C@@H]1C2	
21	0.2	> 18.3	2350	2.6	0.05	CCOc1nc2c(F)c(-c3cc(O)cc4ccccc34)c(CCC#N)cc2c2c1cc(CN1CCCCC1=O)n2[C@H]1[C@H]2CN[C@@H]1C2	
36	1.6	16.7	565	6.9	1.2	Cc1cc(-c2nc3c(F)c(-c4cccc5ccc(F)cc45)c(CCC#N)cc3c3c2cc(CN2CCOCC2=O)n3[C@H]2[C@H]3CN[C@@H]2C3)ccn1	bioavailability [8]: 0%; AUC [9]: Below_limit_of_detection; QH [10]: > 100%; Cmax [11]: 41.5 nM; CL [12]: 16.2 mL/min/kg; Cmax [13]: 2.5 nM; half-life [14]: 8.4 h; AUC at 24 h [15]: 0.108 µM·h; half-life [16]: 3.5 h; QH [17]: 37%; bioavailability [18]: 11%
		11.7		391		CCOc1nc2c(F)c(-c3cccc4ccc(F)cc34)c(CCC#N)cc2c2c1cc(CCC(=O)N(C)C)n2[C@H]1[C@H]2CN[C@@H]1C2	
				671		CN(C)C1CN(c2nc3c(F)c(-c4cc(O)cc5ccccc45)c(Cl)cc3c3c2ncn3[C@H]2[C@H]3CN[C@@H]2C3)C1	
7.5	0.6	> 18.3	103	2.1	0.94	Cc1cc(-c2nc3c(F)c(-c4cccc5ccc(F)cc45)c(CCC#N)cc3c3c2cc([C@@H](C)N2CCOCC2=O)n3[C@H]2[C@H]3CN[C@@H]2C3)ccn1	
6.8	1.4	> 18.3	55	2.8	1.5	Cc1cnc(-c2nc3c(F)c(-c4cccc5ccc(F)cc45)c(CCC#N)cc3c3c2cc([C@@H](C)N2CCOCC2=O)n3[C@H]2[C@H]3CN[C@@H]2C3)cn1	Cmax [19]: 24 nM; bioavailability [8]: 2%; QH [20]: 39%; AUC [21]: 0.068 µM·h; Cmax [22]: 7.2 nM; bioavailability [18]: 20%; half-life [23]: 2.5 h; AUC at 24 h [24]: 0.085 µM·h; half-life [25]: 4.9 h; QH [26]: > 100%
54			2620	3.6	0.1	CC(Oc1nc2c(F)c(-c3cc(O)cc4ccccc34)c(CCC#N)cc2c2c1cc(CCC(=O)N(C)C)n2[C@H]1[C@H]2CN[C@@H]1C2)C1CCCN1C (single isomer, unassigned)	
1240				15		CC(Oc1nc2c(F)c(-c3cc(O)cc4ccccc34)c(CCC#N)cc2c2c1nc(CCC(=O)N(C)C)n2[C@H]1[C@H]2CN[C@@H]1C2)C1CCCN1C (single isomer, unassigned)	
						CC(=O)Nc1cccc(-n2c(=O)n(C3CC3)c(=O)c3c(Nc4ccc(I)cc4F)n(C)c(=O)c(C)c32)c1 [TRAMETINIB]	inhibition in vivo at 6 mg/kg [27]: 99%

Structure (SMILES)	IC50 [1] [nM]	Papp A→B at 2 h, 50 µM [2] [×10⁻⁶ cm/s]	hepatic clearance at 1 µM [3] [mL/min/kg]	IC50 [4] [nM]	IC50 [5] [nM]	Kd [6] [nM]	other results
CN(C)C1CN(c2nc(N3CC4CCC(C3)N4)c3cc(Cl)c(-c4cc(O)cc5ccccc45)c(F)c3n2)C1					704		
